In PubChem BioAssay AID1902 (Broad Institute, 2009) one finds EC50 data, which are given here for 63 molecules.

Active and inactive are the calls of the source.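 How the source made its calls: active means EC50 no more than a set limit of log units above the highest dose; inactive means the rest.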

A word on the EC50: it is the midpoint of the concentration-response curve.

The experiment addresses S. pyogenes SKKanGAS, kanamycin survival, BacTiterGlo, 6 h. The experiment can be described thus: SKKanGAS survival reduction under kanamycin, dose response, streptokinase promoter inhibitor project, SKKanGAS strain, luminescence, dose confirmation (AID 1902).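 Further: lower survival reflects blocked streptokinase promoter driving kanamycin resistance gene.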
For the molecule `COc1cccc(COC(=O)c2sc3nc4n(c(=O)c3c2C)CCC4)c1OC`, the concentration for a half-maximal effect (EC50) was 4760 nM.

On to `Clc1ccc(C2=CSC3=Nc4cccc5cccc(c45)N23)cc1`, for which the EC50 is 7430 nM.

As to `COc1cc(/C=N/NC(=O)c2nnn(-c3nonc3N)c2C(C)C)ccc1OCc1ccc(F)cc1`, the concentration for a half-maximal effect (EC50) was 11300 nM.

As for `COc1cc(C(=O)NNC(=S)NC(=O)c2ccc3c(c2)OCO3)cc(OC)c1OC`, the EC50 was 1630 nM.

As for `CC1Oc2cc3oc4c(O)c5c(cc4c(=O)c3c(O)c2C1(C)C)C=CC(C)(C)O5` (stereo not drawn), the half-maximal effective concentration (EC50) is 2480 nM.

As to `Cc1cc(C(=O)Nc2nc(-c3ccccn3)cs2)ccc1[N+](=O)[O-]`, the EC50 is 1690 nM.

Regarding `O=C(N/N=C/c1ccccc1O)c1ccc2c(c1)OCO2`, the EC50 was 2760 nM.

Turning to `CCC(=O)Nc1nc2ccccc2n1Cc1ccccc1C`, the EC50 was 1620 nM.

For the molecule `N=C1S/C(=C\c2cn[nH]c2-c2ccc(F)cc2)C(=O)N1c1ccccc1F`, the concentration for a half-maximal effect (EC50) was 3650 nM.

For `COc1ccc(/C=C2\Sc3ccc(C(=O)N4CCCC4)cc3N(C)C2=O)cc1OC`, the EC50 is 515 nM.

Turning to `CC1CC(C)CN(Cc2nc(N)nc(Nc3ccc4ccccc4c3)n2)C1` (stereo not drawn), the EC50 was 1410 nM.

As to `Cc1nnc(SCC2=C(C(=O)O)N3C(=O)C(NC(=O)c4cc(F)c(F)cc4Cl)C3SC2)s1` (stereo not drawn), the EC50 was 535 nM.

As to `O=C(NNc1nc2ccc(Cl)cc2s1)c1cc(-c2cccs2)nc2ccccc12`, the EC50 was 334 nM.

Regarding `Cc1ccc(-c2nn(-c3ccccc3)cc2/C=N/NC(=O)CSc2nnc(C)n2-c2ccccc2)cc1`, the half-maximal effective concentration (EC50) was 9840 nM.

In the case of `O=C(C[n+]1cnn(CC(=O)c2ccc(Cl)cc2Cl)c1)c1ccc([N+](=O)[O-])cc1`, the half-maximal effective concentration (EC50) is 12300 nM.

Regarding `CN1CCN(C(c2ccc(C(F)(F)F)cc2)c2ccc3cccnc3c2O)CC1` (stereo not drawn), the EC50 was 3020 nM.

In the case of `CCOC(=O)c1ccc(Oc2cn[nH]c2-c2ccc(OCC(=O)NN)cc2O)cc1`, the EC50 is 357 nM.

With `COc1ccc(Cl)cc1C(=O)NNC(=S)NC(=O)c1ccc(F)c(F)c1`, the 50% effective concentration (EC50) is 139 nM.

Turning to `CCOc1ccc2nc(N3C(=O)/C(=C/c4ccc(Cl)cc4)NC3=S)sc2c1`, the EC50 is 1300 nM.

Take `CCCOc1ccc(C(=O)NC(=S)NNC(=O)c2c(-c3ccccc3)noc2C)cc1`: the EC50 is 274 nM.

Consider `O=S(=O)(Nc1nc2ccccc2nc1Cl)c1ccc2ccccc2c1`, for which the EC50 was > 5000 nM (inactive).

For `COc1ccc2nc(C3CCCCC3)nc(C3CCCCC3)c2c1`, the concentration for a half-maximal effect (EC50) was 2660 nM.

Regarding `Cc1ccc2nc(-c3ccc(NS(=O)(=O)c4ccc(F)c(F)c4)cc3)sc2c1`, the EC50 was 2690 nM.

As for `CC(C)=CCc1c2c(c3occ(-c4ccc(O)cc4)c(=O)c3c1O)C=CC(C)(C)O2`, the concentration for a half-maximal effect (EC50) is 876 nM.

On to `Cc1ccc(-c2nc3c(Cl)cc(Cl)cc3c(=O)n2O)cc1`, for which the EC50 is 808 nM.

On to `CN(C)S(=O)(=O)c1ccc(C(=O)Nc2nnc(-c3ccc4c(c3)CCCC4)o2)cc1`, for which the EC50 was 144 nM.

As to `COc1ccc(O)c(CN2CCC(n3nccc3NC(=O)CCOc3ccccc3)CC2)c1`, the EC50 is > 15000 nM (inactive).

Regarding `CC(=O)O[C@H]1C[C@@]2(C)[C@@H](C[C@@H](O)[C@H]3[C@@]4(C)CC[C@@H](O)[C@@H](C)C4CC[C@@]32C)/C1=C(\CCC=C(C)C)C(=O)O` (stereo partly drawn), the EC50 is 1580 nM.

Regarding `Cc1cccc(/C=N/NC(=O)c2ccccc2OCc2cccc(Br)c2)n1`, the EC50 was 6560 nM.

As to `CCOc1ccc(/C=C2/Sc3ccc(C(=O)N4CCN(C(=O)c5ccco5)CC4)cc3N(C)C2=O)cc1OC`, the 50% effective concentration (EC50) is 4190 nM.

Turning to `COc1ccc(OC)c2[nH]c(C(=O)N/N=C/c3ccccc3O)cc12`, the EC50 was 1640 nM.

In the case of `O=C(Nc1cccc(NC(=O)c2ccccc2Cl)c1)c1ccc([N+](=O)[O-])o1`, the 50% effective concentration (EC50) is 4810 nM.

With `O=c1[nH]c(CN2CC=C(c3ccccc3)CC2)nc2scc(-c3ccccc3)c12`, the EC50 was 3170 nM.

As to `O=[N+]([O-])c1ccc(O)c(-c2cc(C(F)(F)F)nc(-c3ccccc3)n2)c1`, the EC50 is 205 nM.

With `COc1ccc(/C=C/c2ccc3c(Br)ccc(O)c3n2)cc1`, the EC50 is 785 nM.

For the molecule `CC(C)[C@H](NC(=O)N1CC(=O)Nc2ccccc21)C(=O)N[C@@H](Cc1ccccc1)C(=O)O`, the EC50 was > 15000 nM (inactive).

In the case of `Cc1nn(-c2ccc(Cl)cc2)c(Cl)c1/C=N/NC(=O)c1ccc(NS(=O)(=O)c2cccs2)cc1`, the EC50 was 2060 nM.

With `CC(C)=CCC12Oc3cc(O)ccc3C1(O)Oc1cc(O)c([C@H]3C=C(C)CC(c4ccc(O)cc4O)[C@H]3C(=O)c3ccc(O)cc3O)c(O)c1C2=O` (stereo partly drawn), the EC50 is 1210 nM.

For `O=[N+]([O-])c1ccc(N2N=C(c3ccccc3)CC2c2ccccc2O)cc1` (stereo not drawn), the EC50 was 2250 nM.

On to `Cc1cccc(CC(Cc2nc3ccccc3[nH]2)c2nc3ccccc3[nH]2)c1` (stereo not drawn), for which the 50% effective concentration (EC50) was 9880 nM.

With `O=C(N/N=C\C=C\c1ccc([N+](=O)[O-])o1)c1cccs1`, the EC50 is 1970 nM.

With `CC(=O)O[C@H]1CC[C@]2(C)[C@H]3CC=C4[C@@H]5[C@@H](C)[C@H](C)CC[C@]5(C(=O)O)CC[C@@]4(C)[C@]3(C)CC[C@H]2C1(C)C`, the EC50 was 2830 nM.

Turning to `O=C(NC(=S)NNC(=O)c1cccs1)c1ccccc1`, the EC50 was 5730 nM.

Take `Cc1ccc(C(=O)NC(=S)NNC(=O)COc2ccccc2C)cc1`: the concentration giving a half-maximal response (EC50) was 161 nM.

As to `COc1cccc(/C=C/c2ccc3cccc(O)c3n2)c1OC`, the EC50 was 887 nM.

On to `Nc1[nH]n2c(=O)cc(-c3ccccc3)nc2c1N=Nc1ccc2c(c1)OCO2`, for which the EC50 is 2250 nM.

Turning to `O=C1C=C(Nc2ccccc2)c2ccccc2C1=O`, the EC50 is 2440 nM.

Consider `COc1ccc(Cl)cc1NC(=O)CN1CCC(n2nnc3cc(C)ccc32)CC1`, for which the concentration for a half-maximal effect (EC50) is 10800 nM.

As for `Cc1nc2c(C(=O)Nc3ccc(N4CCCC(O)C4)cc3)snc2c(=O)[nH]1` (stereo not drawn), the EC50 is 4460 nM.

For the molecule `Cc1cc(C)cc(C(=O)NC2C(=O)N3C(C(=O)O)=C(CSc4nnc(C)s4)CSC23)c1` (stereo not drawn), the concentration giving a half-maximal response (EC50) is 380 nM.

Take `CCCCCCCOC(=O)C[N+](C)(C)CCOC1CC2CCC1(C)C2(C)C` (stereo not drawn): the concentration for a half-maximal effect (EC50) is 4520 nM.

With `CC(C)C[C@H](NC(=O)c1nc[nH]c1C(=O)N1CCc2ccccc2C1)C(=O)OCc1ccccc1`, the EC50 was 9870 nM.

Consider `COc1ccc(-c2c(C#N)c(N)nc3sc(C(=O)c4ccccc4)c(N)c23)cc1`, for which the 50% effective concentration (EC50) is 5900 nM.

On to `C/C(=N/NC(=O)CNC(=O)c1cccnc1)c1cccc([N+](=O)[O-])c1`, for which the EC50 was > 15000 nM (inactive).

Consider `O=[N+]([O-])c1cc(Br)c(O)c(/C=N/Nc2nnnn2-c2cccc3ccccc23)c1`, for which the EC50 was 5440 nM.

As to `Cn1c2ccccc2c(=O)c2c(=O)n(C3CCCCC3)c(-c3cccs3)nc21`, the EC50 was 7030 nM.

Regarding `O=C(Cc1cccs1)NNC(=S)NC(=O)c1ccccc1`, the 50% effective concentration (EC50) is 3290 nM.

For the molecule `O=C(COC(=O)c1ccccc1Br)Nc1nnc(-c2ccccc2)o1`, the half-maximal effective concentration (EC50) was 689 nM.

Consider `CC(/C=C/c1ccc(N(C)C)cc1)=N/N=C1/NC(=O)CC(C(=O)Nc2ccc(Cl)cc2)S1` (stereo not drawn), for which the half-maximal effective concentration (EC50) was 2380 nM.

Regarding `CC(NS(=O)(=O)OCC(Cl)(Cl)Cl)c1ccc(C(C)(C)C)cc1` (stereo not drawn), the 50% effective concentration (EC50) is 4640 nM.

Turning to `CCN1CCN(Cc2ccc(NC(=O)c3cc(NC(=O)c4cc(-c5ccc(OC)cc5)n[nH]4)cc(OC)c3)cc2C(F)(F)F)CC1`, the concentration giving a half-maximal response (EC50) is 4260 nM.

Consider `CC(C)C(NC(=O)C(c1ccccc1)c1ccccc1)c1nc2ccccc2[nH]1` (stereo not drawn), for which the concentration for a half-maximal effect (EC50) was 2960 nM.

As to `CN(/N=C/c1cc(Br)cc(Br)c1O)c1cccc(C(F)(F)F)n1`, the EC50 was 544 nM.
